Results: ChEMBL document CHEMBL1201862, “PubChem BioAssay data set” (2004)
The source made the active and inactive calls.

Columns and labels:
[1] = molecular target: Glyceraldehyde-3-phosphate dehydrogenase (Homo sapiens, UniProt P04406)
[2] = molecular target: Alkaline phosphatase, placental type (Homo sapiens, UniProt P05187); experiment: human placental alkaline phosphatase inhibition – biochemical, luminescence, confirmation (AID 1512); type: functional
[3] = molecular target: T1, Alkaline phosphatase, tissue-nonspecific isozyme (Homo sapiens, UniProt P05186); experiment: potency against alkaline phosphatase TNAP – biochemical, luminescent, dose response, SAR follow-up (AID 1056)
T1 sequence (P05186 whole entry): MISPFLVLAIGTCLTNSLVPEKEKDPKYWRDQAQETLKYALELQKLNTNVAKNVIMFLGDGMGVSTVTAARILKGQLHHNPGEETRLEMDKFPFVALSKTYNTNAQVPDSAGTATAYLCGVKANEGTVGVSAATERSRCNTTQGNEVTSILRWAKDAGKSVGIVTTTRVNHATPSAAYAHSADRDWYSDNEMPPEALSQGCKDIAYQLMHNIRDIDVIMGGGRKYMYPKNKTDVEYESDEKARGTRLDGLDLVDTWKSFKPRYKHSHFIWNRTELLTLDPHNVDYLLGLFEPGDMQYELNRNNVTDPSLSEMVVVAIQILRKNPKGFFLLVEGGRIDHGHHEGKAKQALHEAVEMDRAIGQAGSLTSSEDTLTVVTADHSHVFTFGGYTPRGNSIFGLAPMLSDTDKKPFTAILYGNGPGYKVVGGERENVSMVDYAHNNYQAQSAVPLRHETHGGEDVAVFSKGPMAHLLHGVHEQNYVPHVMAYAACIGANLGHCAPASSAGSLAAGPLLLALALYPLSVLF

Bcl-2-related protein A1 = molecular target: T2, Bcl-2-related protein A1 (Mus musculus, UniProt Q07440); type: functional;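 also: confirmatory dose–response counterscreen on Bfl-1, used to check hits from a UBC13 polyubiquitin inhibitor campaign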
T2 sequence (Q07440 whole entry): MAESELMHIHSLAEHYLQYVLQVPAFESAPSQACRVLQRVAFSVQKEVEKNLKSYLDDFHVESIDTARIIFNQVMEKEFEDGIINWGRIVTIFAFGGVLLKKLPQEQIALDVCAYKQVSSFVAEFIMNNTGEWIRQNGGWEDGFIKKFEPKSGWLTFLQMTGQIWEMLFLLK

[4] = molecular target: T3, Ubiquitin-conjugating enzyme E2 N (Homo sapiens, UniProt P61088); type: functional
T3 sequence (P61088 whole entry): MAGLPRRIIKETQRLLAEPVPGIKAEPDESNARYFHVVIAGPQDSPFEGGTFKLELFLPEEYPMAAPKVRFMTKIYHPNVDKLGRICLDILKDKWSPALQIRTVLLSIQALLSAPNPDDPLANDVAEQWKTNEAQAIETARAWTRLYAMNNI

[5] = molecular target: T3, Ubiquitin-conjugating enzyme E2 N; type: functional; remark: listed apart in the source
[6] = HIV-1 Vif–A3G interaction blockers – biochemical, TR-FRET, GST-Vif 1-94, biotin-A3G peptide, dose response retest, primary screen (AID 1117319); type: functional;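 also: TR-FRET signal of purified GST-Vif binding a biotinylated A3G peptide; inhibitors lower the FRET signal by blocking Vif and A3G binding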
[7] = viability loss in Vero cells – cytotoxicity control for Vif-APOBEC3G degradation inhibitor project, dose response (AID 1117358); type: functional; settings: Vero
CAAX prenyl protease 2 [8] = molecular target: T4, CAAX prenyl protease 2 (Saccharomyces cerevisiae S288c, UniProt Q03530); type: biochemical
T4 sequence (Q03530 whole entry): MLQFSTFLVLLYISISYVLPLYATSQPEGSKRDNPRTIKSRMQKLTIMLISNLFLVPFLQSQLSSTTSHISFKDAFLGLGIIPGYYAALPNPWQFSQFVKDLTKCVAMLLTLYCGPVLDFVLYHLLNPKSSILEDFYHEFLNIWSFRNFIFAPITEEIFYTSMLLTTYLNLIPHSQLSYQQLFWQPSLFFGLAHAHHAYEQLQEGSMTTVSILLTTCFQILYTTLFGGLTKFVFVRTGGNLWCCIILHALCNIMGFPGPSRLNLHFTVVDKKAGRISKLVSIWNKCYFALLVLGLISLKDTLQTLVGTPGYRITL

CAAX prenyl protease 2 [9] = molecular target: T5, CAAX prenyl protease 2 (Homo sapiens, UniProt Q9Y256); experiment: inhibition of Ras-converting CAAX protease Rce1 – biochemical, yeast membranes, quenched-peptide fluorescence, cherry-pick, dose response (AID 588849)
T5 sequence (Q9Y256 whole entry): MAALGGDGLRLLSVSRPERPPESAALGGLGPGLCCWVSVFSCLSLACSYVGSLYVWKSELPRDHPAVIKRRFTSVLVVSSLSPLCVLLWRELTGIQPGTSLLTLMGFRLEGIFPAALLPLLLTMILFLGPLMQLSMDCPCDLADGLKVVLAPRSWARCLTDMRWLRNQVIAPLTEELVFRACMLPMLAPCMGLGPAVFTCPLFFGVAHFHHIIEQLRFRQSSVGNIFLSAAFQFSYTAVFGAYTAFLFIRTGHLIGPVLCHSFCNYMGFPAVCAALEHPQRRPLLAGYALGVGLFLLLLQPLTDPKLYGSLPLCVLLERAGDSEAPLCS

[10] = molecular target: G-protein coupled receptor 35 (Homo sapiens, UniProt Q9HC97); experiment: inhibition of zaprinast-stimulated GPR35 beta-arrestin translocation – imaging, U2OS, beta-arrestin-GFP, zaprinast agonist, primary screen (AID 2058); type: functional;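 also: antagonist potency meaning inhibition of agonist-induced arrestin redistribution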
[11] = tested on: Streptococcus sp. 'group A'; experiment: Streptococcus pyogenes SK(-)GAS viability under kanamycin – luminescence, BacTiterGlo, confirmation, counter-screen for streptokinase expression inhibitor project, dose response (AID 1900); type: functional, organism-based
Streptokinase A = molecular target: T6, Streptokinase A (Streptococcus pyogenes serotype M1, UniProt P10520); experiment: viability-normalized secreted streptokinase activity reduction – plasminogen activation absorbance, OD405, dose response (AID 1914); type: functional, Streptococcus pyogenes M1 GAS;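 also: secreted streptokinase activity via plasminogen activation per viability signal from cell pellet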
T6 sequence (P10520 whole entry): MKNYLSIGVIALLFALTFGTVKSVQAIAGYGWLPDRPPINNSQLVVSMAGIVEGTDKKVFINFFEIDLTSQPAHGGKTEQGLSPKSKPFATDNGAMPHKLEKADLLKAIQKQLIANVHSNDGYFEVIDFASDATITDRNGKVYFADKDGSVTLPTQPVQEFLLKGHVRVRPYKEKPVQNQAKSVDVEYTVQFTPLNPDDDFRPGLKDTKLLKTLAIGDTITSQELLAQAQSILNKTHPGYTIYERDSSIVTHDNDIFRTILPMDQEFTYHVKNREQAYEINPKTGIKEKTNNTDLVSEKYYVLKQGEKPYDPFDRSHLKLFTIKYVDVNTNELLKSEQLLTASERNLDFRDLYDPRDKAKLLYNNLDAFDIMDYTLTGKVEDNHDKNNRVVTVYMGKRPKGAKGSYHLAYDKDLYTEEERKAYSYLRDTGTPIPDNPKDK

Large T antigen = Large T antigen (Simian virus 40, UniProt P03070); type: functional, Betapolyomavirus macacae;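 also: Confirmatory-stage PubChem screen for compounds that inhibit SV40 T antigen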
[12] = molecular target: T7, Bifunctional protein GlmU (Mycobacterium tuberculosis, UniProt P9WMN3); experiment: Inhibitors of Mycobacterial Glucosamine-1-phosphate acetyl transferase (GlmU). Secondary screen.; parameters: species or system Mycobacterium tuberculosis H37Rv
T7 sequence (P9WMN3 whole entry): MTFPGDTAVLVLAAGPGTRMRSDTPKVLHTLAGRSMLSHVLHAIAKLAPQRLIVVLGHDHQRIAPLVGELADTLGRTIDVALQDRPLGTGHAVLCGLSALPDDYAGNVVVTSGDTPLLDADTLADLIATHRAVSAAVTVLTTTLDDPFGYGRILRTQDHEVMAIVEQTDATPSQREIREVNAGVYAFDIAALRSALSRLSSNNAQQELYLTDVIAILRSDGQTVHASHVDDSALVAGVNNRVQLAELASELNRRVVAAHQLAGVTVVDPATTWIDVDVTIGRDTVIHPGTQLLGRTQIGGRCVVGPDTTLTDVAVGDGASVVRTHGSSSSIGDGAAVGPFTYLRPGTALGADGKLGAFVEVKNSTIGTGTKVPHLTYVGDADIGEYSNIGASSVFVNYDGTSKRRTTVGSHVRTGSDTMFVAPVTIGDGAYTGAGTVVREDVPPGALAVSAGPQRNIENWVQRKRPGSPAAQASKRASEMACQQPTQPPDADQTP

[13] = molecular target: Induced myeloid leukemia cell differentiation protein Mcl-1 (Homo sapiens, UniProt Q07820); type: functional
Streptococcus = experiment: GAS UMAA2166 growth inhibition – luminescence, BacTiterGlo, counter-screen for streptokinase expression inhibitor project, dose response (AID 1915); type: functional, organism-based;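 also: potency for reduction of bacterial viability or growth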
[14] = molecular target: Dual specificity tyrosine-phosphorylation-regulated kinase 1A (Rattus norvegicus, UniProt Q63470); type: biochemical, Homo sapiens
[15] = molecular target: 26S proteasome non-ATPase regulatory subunit 14 (Homo sapiens, UniProt O00487); experiment: inhibition of proteasome subunit RPN11 – biochemical, fluorescence polarization, uHTS hits, confirmation (AID 602368); type: functional
[16] = molecular target: 72 kDa type IV collagenase (Homo sapiens, UniProt P08253); experiment: Dose Response validation of uHTS RPN11 inhibitor hits using a MMP-2 Fluorescence assay.; type: functional
Prothrombin = Prothrombin (Bos taurus, UniProt P00735); experiment: thrombin protease inhibitors – biochemical, fluorescence polarization, uHTS hits, dose response (AID 602369); type: functional

Alkaline phosphatase, placental type, sequence (P05187 whole entry): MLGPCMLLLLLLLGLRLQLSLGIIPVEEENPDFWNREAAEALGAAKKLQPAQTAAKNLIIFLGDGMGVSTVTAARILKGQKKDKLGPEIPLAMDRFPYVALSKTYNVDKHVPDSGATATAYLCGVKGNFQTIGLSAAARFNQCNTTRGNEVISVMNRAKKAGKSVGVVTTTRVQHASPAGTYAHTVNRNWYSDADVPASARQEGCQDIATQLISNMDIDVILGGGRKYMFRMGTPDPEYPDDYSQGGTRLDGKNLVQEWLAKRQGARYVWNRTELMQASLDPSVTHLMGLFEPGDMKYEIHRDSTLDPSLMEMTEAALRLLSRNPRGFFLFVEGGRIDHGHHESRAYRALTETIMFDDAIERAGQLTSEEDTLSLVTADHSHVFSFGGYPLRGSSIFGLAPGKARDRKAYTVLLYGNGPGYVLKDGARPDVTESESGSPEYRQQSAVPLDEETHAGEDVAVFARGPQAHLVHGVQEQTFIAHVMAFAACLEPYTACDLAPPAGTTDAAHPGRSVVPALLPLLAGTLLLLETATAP
Glyceraldehyde-3-phosphate dehydrogenase, sequence (P04406 whole entry): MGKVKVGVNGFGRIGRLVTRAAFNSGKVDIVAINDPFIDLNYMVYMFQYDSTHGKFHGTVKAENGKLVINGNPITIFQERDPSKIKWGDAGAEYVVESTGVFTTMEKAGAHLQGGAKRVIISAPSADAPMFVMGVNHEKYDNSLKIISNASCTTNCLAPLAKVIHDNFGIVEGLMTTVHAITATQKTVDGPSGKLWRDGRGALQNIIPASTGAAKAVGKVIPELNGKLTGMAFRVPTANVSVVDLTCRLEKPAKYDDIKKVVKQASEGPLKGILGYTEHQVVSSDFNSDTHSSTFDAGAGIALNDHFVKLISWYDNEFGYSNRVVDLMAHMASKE
Large T antigen, sequence (P03070 whole entry): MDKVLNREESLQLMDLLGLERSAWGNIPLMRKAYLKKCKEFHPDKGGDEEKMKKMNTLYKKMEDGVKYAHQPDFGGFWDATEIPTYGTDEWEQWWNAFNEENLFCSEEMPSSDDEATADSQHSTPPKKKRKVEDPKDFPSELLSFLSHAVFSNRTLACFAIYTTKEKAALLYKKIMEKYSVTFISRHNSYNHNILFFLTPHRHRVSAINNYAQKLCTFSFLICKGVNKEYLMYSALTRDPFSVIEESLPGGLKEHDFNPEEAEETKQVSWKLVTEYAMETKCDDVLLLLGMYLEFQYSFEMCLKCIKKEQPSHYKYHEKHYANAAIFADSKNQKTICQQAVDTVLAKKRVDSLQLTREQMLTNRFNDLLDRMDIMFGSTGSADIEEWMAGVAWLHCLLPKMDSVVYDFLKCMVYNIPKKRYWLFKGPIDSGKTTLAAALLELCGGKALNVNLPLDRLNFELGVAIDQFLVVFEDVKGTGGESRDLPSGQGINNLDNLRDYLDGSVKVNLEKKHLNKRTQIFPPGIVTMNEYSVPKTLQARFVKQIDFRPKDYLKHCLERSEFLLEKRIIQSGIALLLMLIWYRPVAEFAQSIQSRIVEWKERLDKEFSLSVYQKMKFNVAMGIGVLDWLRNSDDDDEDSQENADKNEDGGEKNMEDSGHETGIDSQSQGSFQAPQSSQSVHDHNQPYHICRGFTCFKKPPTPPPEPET
26S proteasome non-ATPase regulatory subunit 14, sequence (O00487 whole entry): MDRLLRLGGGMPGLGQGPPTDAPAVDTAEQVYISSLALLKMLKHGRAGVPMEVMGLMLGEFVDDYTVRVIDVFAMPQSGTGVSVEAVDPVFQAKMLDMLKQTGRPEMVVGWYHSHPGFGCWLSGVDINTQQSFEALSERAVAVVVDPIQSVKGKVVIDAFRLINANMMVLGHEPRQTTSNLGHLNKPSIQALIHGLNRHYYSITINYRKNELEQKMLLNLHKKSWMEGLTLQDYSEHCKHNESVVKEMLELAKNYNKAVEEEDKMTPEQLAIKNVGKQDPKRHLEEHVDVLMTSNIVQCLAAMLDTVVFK
Induced myeloid leukemia cell differentiation protein Mcl-1, sequence (Q07820 whole entry): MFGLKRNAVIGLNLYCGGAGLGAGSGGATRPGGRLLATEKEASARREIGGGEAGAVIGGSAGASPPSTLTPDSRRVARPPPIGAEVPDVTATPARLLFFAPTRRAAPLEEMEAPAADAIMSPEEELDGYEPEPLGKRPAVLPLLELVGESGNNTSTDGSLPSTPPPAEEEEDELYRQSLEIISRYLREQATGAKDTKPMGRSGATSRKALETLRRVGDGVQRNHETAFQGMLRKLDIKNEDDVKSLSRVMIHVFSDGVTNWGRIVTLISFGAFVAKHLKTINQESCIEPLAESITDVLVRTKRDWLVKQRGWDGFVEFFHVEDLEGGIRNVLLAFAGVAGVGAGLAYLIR
G-protein coupled receptor 35, sequence (Q9HC97 whole entry): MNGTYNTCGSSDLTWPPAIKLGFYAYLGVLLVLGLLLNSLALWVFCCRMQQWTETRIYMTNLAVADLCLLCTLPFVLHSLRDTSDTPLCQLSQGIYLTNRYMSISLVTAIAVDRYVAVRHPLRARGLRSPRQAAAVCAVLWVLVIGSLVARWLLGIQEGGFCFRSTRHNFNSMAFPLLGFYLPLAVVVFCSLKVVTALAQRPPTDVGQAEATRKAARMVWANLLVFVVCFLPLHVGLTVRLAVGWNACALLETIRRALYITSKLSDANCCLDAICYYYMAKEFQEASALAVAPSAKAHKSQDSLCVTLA
72 kDa type IV collagenase, sequence (P08253 whole entry): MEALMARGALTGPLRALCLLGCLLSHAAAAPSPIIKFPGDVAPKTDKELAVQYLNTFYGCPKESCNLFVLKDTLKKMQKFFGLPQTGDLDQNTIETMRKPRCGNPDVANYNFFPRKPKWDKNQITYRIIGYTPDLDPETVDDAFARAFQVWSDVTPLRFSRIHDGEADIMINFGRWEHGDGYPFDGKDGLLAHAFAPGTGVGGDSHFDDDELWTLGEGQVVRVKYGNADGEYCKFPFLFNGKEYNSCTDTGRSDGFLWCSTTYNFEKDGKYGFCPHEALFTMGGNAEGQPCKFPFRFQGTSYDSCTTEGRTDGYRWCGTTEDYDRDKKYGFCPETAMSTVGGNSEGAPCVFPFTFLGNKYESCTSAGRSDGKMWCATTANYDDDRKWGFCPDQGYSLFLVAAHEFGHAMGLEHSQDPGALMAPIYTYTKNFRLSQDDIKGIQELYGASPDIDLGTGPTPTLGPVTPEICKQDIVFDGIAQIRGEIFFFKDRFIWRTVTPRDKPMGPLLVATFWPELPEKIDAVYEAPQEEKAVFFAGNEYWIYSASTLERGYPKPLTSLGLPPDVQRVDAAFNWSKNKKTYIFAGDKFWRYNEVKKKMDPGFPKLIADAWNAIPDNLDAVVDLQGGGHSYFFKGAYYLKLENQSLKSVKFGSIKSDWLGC

COc1ccc(Cc2nc3c4cnn(C)c4ncn3n2)cc1
IC50 [1]: > 100 µM (not active)
IC50 [2]: > 100 µM (inactive)
IC50 [3]: > 100 µM (inactive)

Cc1ccc(C)c(S(=O)(=O)c2c[nH]c(=S)[nH]c2=O)c1
IC50 (Bcl-2-related protein A1): > 20 µM (inactive)
IC50 [4]: 14.3 µM (active)
IC50 [5]: > 20 µM (inactive)

O=C1C(Cc2cnc[nH]2)NC(=S)N1c1ccccc1 (stereo unspecified)
IC50 (Bcl-2-related protein A1): > 20 µM (inactive)
IC50 [4]: 8.14 µM (active)
IC50 [5]: 4 µM (active)

COc1ccc(OC)c(S(=O)(=O)Nc2cnc3ccccc3c2)c1
IC50 [1]: > 100 µM (not active)
IC50 [2]: > 100 µM (inactive)
IC50 [6]: > 100 µM (active)
CC50 [7]: > 40 µM (active)

CC(C)c1c(C(=O)N/N=C/c2ccsc2)nnn1-c1nonc1N
AC50 (CAAX prenyl protease 2 [8]): 0.343 µM (active)

CCn1nc(C)c(/C=N/NC(=O)c2ccc3c(c2)c(C)c(C)n3Cc2ccccc2)c1C
IC50 [2]: > 100 µM (inactive)

CCSc1nc(O)c2c(n1)N=C1CC(C)(C)CC(O)=C1C2c1ccccn1 (stereo unspecified)
AC50 (CAAX prenyl protease 2 [9]): 9.79 µM (active)

Cc1cc(SCC(=O)NC(=O)c2cccn2C)nc2ccccc12
IC50 (Bcl-2-related protein A1): > 20 µM (inactive)
IC50 [4]: 17.4 µM (active)
IC50 [5]: > 20 µM (inactive)

N=C1/C(=C\c2ccc(-c3cccc(C(=O)O)c3)o2)C(=O)N=C2SC=C(c3ccccc3)N12
IC50 [10]: 2.29 µM (active)
EC50 [11]: 0.743 µM (active)
EC50 (Streptokinase A): > 150 µM (not active)
IC50 (Large T antigen): 92.2 µM (active)
IC50 [12]: 129 µM (active)
IC50 [13]: 1.55 µM (active)
EC50 (Streptococcus): 8.79 µM (active)
AC50 [14]: 2.19 µM (active)
IC50 [15]: 7.84 µM (active)
IC50 [16]: 9.07 µM (active)
IC50 (Prothrombin): 15.8 µM (active)

CC(=O)Oc1ccc(C(=O)Nc2ccc(S(=O)(=O)NCC3CCCO3)cc2)cc1 (stereo unspecified)
AC50 (CAAX prenyl protease 2 [8]): 68.7 µM (active)
